Measurements published in patent publication US20100120762A1, “Triazine derivatives as inhibitors of phosphodiesterases” (WYETH, priority 2008, published 2010).

Columns and labels:
[1] = molecular target: T1, PDE2A (NM002599) (Homo sapiens, UniProt O00408); experiment: Inhibition of recombinant PDE2A (expressed in baculovirus/SF21-cells); assay type: biochemical; conditions: recombinant PDE2A, 0.5 μM [3H]-cAMP, 1000 nM cGMP, 37° C., 30 minutes, SPA; read-out: PDE2A IC50
T1 construct: made in house; host or cells: baculovirus / SF21 insect cells
T1 sequence (O00408 whole entry): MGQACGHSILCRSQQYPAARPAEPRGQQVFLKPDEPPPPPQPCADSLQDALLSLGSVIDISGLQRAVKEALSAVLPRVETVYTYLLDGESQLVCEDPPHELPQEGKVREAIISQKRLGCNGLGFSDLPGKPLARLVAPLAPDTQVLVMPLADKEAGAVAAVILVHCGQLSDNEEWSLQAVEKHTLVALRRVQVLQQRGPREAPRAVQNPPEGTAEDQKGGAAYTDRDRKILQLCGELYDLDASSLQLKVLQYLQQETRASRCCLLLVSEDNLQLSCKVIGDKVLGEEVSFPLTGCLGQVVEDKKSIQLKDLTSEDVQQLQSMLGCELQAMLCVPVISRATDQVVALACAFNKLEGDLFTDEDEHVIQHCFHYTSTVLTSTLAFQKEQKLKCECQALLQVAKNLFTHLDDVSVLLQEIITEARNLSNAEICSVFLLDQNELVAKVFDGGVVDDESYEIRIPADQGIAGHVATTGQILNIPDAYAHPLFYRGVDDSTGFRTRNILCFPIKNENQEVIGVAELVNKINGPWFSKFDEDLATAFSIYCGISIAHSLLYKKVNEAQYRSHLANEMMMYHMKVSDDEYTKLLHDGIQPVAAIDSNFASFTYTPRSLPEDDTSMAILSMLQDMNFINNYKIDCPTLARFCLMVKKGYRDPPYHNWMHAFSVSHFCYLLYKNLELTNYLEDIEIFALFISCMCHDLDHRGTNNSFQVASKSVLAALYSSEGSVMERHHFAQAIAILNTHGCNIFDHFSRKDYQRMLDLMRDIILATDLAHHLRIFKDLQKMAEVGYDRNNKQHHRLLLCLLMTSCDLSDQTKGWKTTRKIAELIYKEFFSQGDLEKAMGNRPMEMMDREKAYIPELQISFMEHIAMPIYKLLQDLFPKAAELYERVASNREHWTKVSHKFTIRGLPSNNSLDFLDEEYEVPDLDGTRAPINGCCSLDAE
Procedure: PDE2A (NM002599) was cloned and the gene was inserted in the baculovirus and the enzyme-protein expressed in SF21-cells. The enzyme was isolated from these cells by harvesting the cells by an centrifugation at 200 g to collect the cells. The cells were resuspended in 50 mM Tris-HCl/5 mM MgCl2 buffer (pH=7.4) (Sigma, Deisenhofen, Germany; Merck, Darmstadt, Germany) and lysed by a sonication of the cells (three times for 15 seconds, Labsonic U, Fa. Braun, Degersheim, Switzerland, level “high”). The membrane fraction of PDE2A was obtained by a centrifugation at 48 000 g for 1 h, resuspended in buffer and stored at −70° C.
PDE2A activity was determined in a one step procedure in microtiterplates. The reaction mixture of 100 μl contained 50 mM Tris-HCl/5 mM MgCl2 buffer (pH=7.4) (Sigma, Deisenhofen, Germany; Merck, Darmstadt, Germany), 0.5 μM [3H]-cAMP (Amersham, Buckinghamshire, UK), 1000 nM cGMP and the enzyme. Non-specific enzyme activity was tested in the absence of cGMP. The reaction was initiated by addition of the substrate solution and was carried out at 37° C. for 30 minutes. Enzymatic activity then was stopped by addition of 25 μl SPA-beads (Amersham-Pharmacia). One hour later the mixture was measured in a liquid scintillation counter for microtiterplates (Microbeta Trilux). For pipetting of the incubation mixture the robot Biomek (Fa. Beckman) was routinely used.
The optimal amount of enzyme in the assay has been determined and optimised for each enzyme preparation separately before using the enzyme in compound testing. For determination of IC50 values the Hill-plot, 2-parameter-model, was used.

[2] = molecular target: T2, PDE10A1 (AB 020593) (Homo sapiens, UniProt Q9Y233); experiment: Inhibition of recombinant PDE10A (baculovirus/SF21 system); assay type: biochemical; conditions: recombinant cytosolic PDE10A, 0.1 μM [3H]-cAMP, 37° C., 30 minutes, SPA; read-out: PDE10A IC50
T2 construct: made in house; host or cells: baculovirus / SF21 insect cells (gene synthesized by Entelechon GmbH)
T2 sequence (Q9Y233 other isoform, or with tags, fused parts or gaps): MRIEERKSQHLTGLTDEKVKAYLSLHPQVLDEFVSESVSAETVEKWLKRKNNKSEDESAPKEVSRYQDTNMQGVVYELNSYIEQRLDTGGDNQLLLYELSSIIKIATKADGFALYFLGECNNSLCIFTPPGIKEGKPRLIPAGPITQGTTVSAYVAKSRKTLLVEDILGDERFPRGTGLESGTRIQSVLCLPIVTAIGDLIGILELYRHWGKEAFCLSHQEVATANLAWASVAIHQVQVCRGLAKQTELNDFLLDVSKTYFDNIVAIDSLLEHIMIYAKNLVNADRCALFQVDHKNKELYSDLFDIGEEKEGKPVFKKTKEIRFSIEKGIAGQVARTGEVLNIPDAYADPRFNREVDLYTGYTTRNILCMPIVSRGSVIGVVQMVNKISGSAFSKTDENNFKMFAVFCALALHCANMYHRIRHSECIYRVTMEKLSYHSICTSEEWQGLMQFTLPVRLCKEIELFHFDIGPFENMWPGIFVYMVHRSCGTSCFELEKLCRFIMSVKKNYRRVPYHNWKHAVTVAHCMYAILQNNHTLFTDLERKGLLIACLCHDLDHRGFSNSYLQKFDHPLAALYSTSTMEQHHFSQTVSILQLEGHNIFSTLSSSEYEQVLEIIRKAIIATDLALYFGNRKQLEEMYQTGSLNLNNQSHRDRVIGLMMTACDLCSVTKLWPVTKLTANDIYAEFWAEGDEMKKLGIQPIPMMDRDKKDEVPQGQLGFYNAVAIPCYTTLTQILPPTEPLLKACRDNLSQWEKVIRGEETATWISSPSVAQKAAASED
Procedure: The DNA of PDE10A1 (AB 020593, 2340 bp) was synthesized and cloned into the vector pCR4.TOPO (Entelechon GmbH, Regensburg, Germany). The gene was than inserted into a baculovirus vector, ligated with the baculovirus DNA. The enzyme-protein was expressed in SF21-cells. The enzyme was isolated from these cells by harvesting the cells by an centrifugation at 500 g to collect the cells.
The cells were resuspended in 50 mM Tris-HCl/1 mM EDTA/250 mM Sucrose buffer, pH=7.4 (Sigma, Deisenhofen, Germany; Merck, Darmstadt, Germany) and lysed by sonification of the cells (three times for 15 seconds, Labsonic U, Fa. Braun, Degersheim, Switzerland, level “high”). The cytosolic PDE10A was obtained by a centrifugation at 48,000 g for 1 h in the supernatant and stored at −70° C.
PDE activity was determined in a one step procedure in microtiter plates. The reaction mixture of 100 μl contained 50 mM Tris-HCl/5 mM MgCl2 buffer (pH=7.4, Sigma, Deisenhofen, Germany; Merck, Darmstadt, Germany) 0.1 μM [3H]-cAMP (Amersham, Buckinghamshire, UK) and the enzyme. Non-specific enzyme activity was determined without the enzyme. The reaction was initiated by addition of the substrate solution and was carried out at 37° C. for 30 minutes. Enzymatic activity then was stopped by addition of 25 μl Ysi-SPA-beads (Amersham-Pharmacia). One h later the mixture was measured in a liquid scintillation counter for microtiter plates (Microbeta Trilux). The Biomek 2000 (Beckman) was used routinely for pipetting of the incubation mixture. The optimal amount of enzyme in the assay has been determined and optimized for each enzyme preparation separately before using the enzyme in compound testing. For determination of IC50 values the Hill-plot, 2-parameter-model, was used.

IC50 [1] [nM] | IC50 [2] [nM] | SMILES
5.32 | 21.2 | COc1ccc2nnc3c(C)nc(-c4cc(F)ccc4Cl)n3c2n1 [Example 62, 9-(2-chloro-5-fluorophenyl)-2-methoxy-7-methylimidazo[5,1-c]pyrido[2,3-e][1,2,4]triazine]
55.2 | 86.8 | COc1ccc2nnc3c(C)nc(-c4cccc(C)c4F)n3c2n1 [Example 63, 9-(2-fluoro-3-methylphenyl)-2-methoxy-7-methylimidazo[5,1-c]pyrido[2,3-e][1,2,4]triazine]
56.2 | 85.6 | COc1ccc2nnc3c(C)nc(-c4ccncc4C)n3c2n1 [Example 64, 2-methoxy-7-methyl-9-(3-methylpyridin-4-yl)imidazo[5,1-c]pyrido[2,3-e][1,2,4]triazine]
22.9 | 120 | COc1ccc2nnc3c(C)nc(-c4c(C)nn(C)c4C)n3c2n1 [Example 65, 2-methoxy-7-methyl-9-(1,3,5-trimethyl-1H-pyrazol-4-yl)imidazo[5,1-c]pyrido[2,3-e][1,2,4]triazine]
49 | 225 | COc1ccc2nnc3c(C)nc(-c4ccc(F)nc4C)n3c2n1 [Example 66, 9-(6-fluoro-2-methylpyridin-3-yl)-2-methoxy-7-methylimidazo[5,1-c]pyrido[2,3-e][1,2,4]triazine]
55.6 | 226 | COc1ccc2nnc3c(C)nc(-c4cnc(F)c(C)c4)n3c2n1 [Example 67, 9-(6-fluoro-5-methylpyridin-3-yl)-2-methoxy-7-methylimidazo[5,1-c]pyrido[2,3-e][1,2,4]triazine]
48.3 | 49.9 | COc1ccc2nnc3c(C)nc(-c4ccc(C)cc4F)n3c2n1 [Example 69, 9-(2-fluoro-4-methylphenyl)-2-methoxy-7-methylimidazo[5,1-c]pyrido[2,3-e][1,2,4]triazine]
108 | 83.4 | COc1ccc2nnc3c(C)nc(-c4ccccc4OC)n3c2n1 [Example 70, 2-methoxy-9-(2-methoxyphenyl)-7-methylimidazo[5,1-c]pyrido[2,3-e][1,2,4]triazine]
4.37 | 37.9 | COc1ccc2nnc3c(C)nc(-c4cc(C)ccc4Cl)n3c2n1 [Example 71, 9-(2-chloro-5-methylphenyl)-2-methoxy-7-methylimidazo[5,1-c]pyrido[2,3-e][1,2,4]triazine]
24.9 | 282 | COc1ccc2nnc3c(C)nc(-c4cc(C(F)(F)F)ccc4Cl)n3c2n1 [Example 72, 9-(2-chloro-5-(trifluoromethyl)phenyl)-2-methoxy-7-methylimidazo[5,1-c]pyrido[2,3-e][1,2,4]triazine]
24.3 | 38 | COc1ccc2nnc3c(C)nc(-c4cc(F)ccc4C)n3c2n1 [Example 73, 9-(5-fluoro-2-methylphenyl)-2-methoxy-7-methylimidazo[5,1-c]pyrido[2,3-e][1,2,4]triazine]
10.1 | 87.9 | CCOc1ccc(Cl)c(-c2nc(C)c3nnc4ccc(OC)nc4n23)c1 [Example 74, 9-(2-chloro-5-ethoxyphenyl)-2-methoxy-7-methylimidazo[5,1-c]pyrido[2,3-e][1,2,4]triazine]
11.8 | 13.1 | COc1ccc2nnc3c(C)nc(-c4ccc(F)cc4Cl)n3c2n1 [Example 75, 9-(2-chloro-4-fluorophenyl)-2-methoxy-7-methylimidazo[5,1-c]pyrido[2,3-e][1,2,4]triazine]
10.6 | 149 | COc1ccc2nnc3c(C)nc(-c4cc(OC(F)(F)F)ccc4Cl)n3c2n1 [Example 76, 9-(2-chloro-5-(trifluoromethoxy)phenyl)-2-methoxy-7-methylimidazo[5,1-c]pyrido[2,3-e][1,2,4]triazine]
